Measurements reported in patent publication US6867320B2, “Substituted phenylalkanoic acid derivatives and use thereof” (Asahi Kasei Pharma Corporation, priority 2002, dated 2005).

system: PGE2 production from IL-1β-stimulated MG-63 cells; assay: Suppressing action on PGE2 production from IL-1β-stimulated MG-63 cells; assay type: cell-based; settings: Homo sapiens, IL-1β 1 ng/ml, 18 hours, read-out: PGE2 production suppression ratio
Description: 1. Suppressing Action on PGE2 Production from IL-1β-Stimulated MG-63 Cells (1) Method for Measurement
An action of suppressing PGE2 production caused by interleukin (IL) 1β as an inflammatory stimulant was studied by the following method. Cells of MG-63, which is a human osteosarcoma cell line (purchased from Dainippon Pharmaceutical), were suspended in EMEM medium (GIBCO) containing 10% fetal bovine serum (BioFluid), and then inoculated to each well of 96-well culture plate at a density of 2×10^4 cells/well and cultured overnight. The medium was changed to EMEM medium containing 0.5% fetal bovine serum, and then a test compound was added with each well. Human interleukin-1β (ENDOGEN) was further added as an inflammatory stimulant at a final concentration of 1 ng/ml. The cells were further cultured for 18 hours. The culture supernatant was collected, and the PGE2 concentration in the culture supernatant was measured by using EIA kit (CAYMAN). By using a well which was not added with the stimulant as a negative control and a well which was added only with the stimulant as a positive control, suppression ratios on PGE2 production were calculated from produced amounts of PGE2 in the well added with the test compound using the following equation. PGE2 production suppression ratio=[1−(C−B)/(A−B)]×100 • A: PGE2 production amount of positive control • B: PGE2 production amount of negative control • C: PGE2 production amount in well added with test compound

SMILES | inhibition at 0.4 µM
O=C(O)CCc1cc(Cl)c(OCC2CCCC2)c(-c2ccc3[nH]ccc3c2)c1 [Compound 263, 3-[3-chloro-4-cyclopentylmethyloxy-5-(1H-indol-5-yl)phenyl]propionic acid] | ≥ 50%
Nc1nc2cc(-c3cc(CCC(=O)O)ccc3OCC3CCCC3)ccc2s1 [Compound 285, 3-[3-(2-aminobenzothiazol-5-yl)-4-cyclopentylmethyloxyphenyl]propionic acid] | ≥ 50%
CCc1ccc(CCOc2ccc(CCC(=O)O)cc2-c2ccc3ccccc3c2)nc1 [Compound 062, 3-{4-[2-(5-ethylpyridin-2-yl)ethyloxy]-3-(naphthalen-2-yl)phenyl}propionic acid] | ≥ 50%
O=C(O)CCc1ccc(OCC2CCCC2)c(-c2ccc3ccc(NC(=O)c4ccco4)cc3c2)c1 [Compound 090, 3-(4-cyclopentylmethyloxy-3-{7-[(furan-2-carbonyl)amino]naphthalen-2-yl}phenyl)propionic acid] | ≥ 50%
Cc1n[nH]c2ccc(-c3cc(CCC(=O)O)ccc3OC3CCCC3)cc12 [Compound 574, 3-[4-cyclopentyloxy-3-(3-methyl-1H-indazol-5-yl)phenyl]propionic acid] | ≥ 50%
Cc1oc(-c2ccccc2)nc1CCOc1ccc(CCC(=O)O)cc1-c1ccc2ccccc2c1 [Compound 064, 3-{4-[2-(5-methyl-2-phenyloxazol-4-yl)ethyloxy]-3-(naphthalen-2-yl)phenyl}propionic acid] | ≥ 50%
CNc1cc(CCC(=O)O)cc(-c2ccc3c(cnn3C)c2)c1OC1Cc2ccccc2C1 [Compound 587, 3-[4-(indan-2-yloxy)-3-(N-methylamino)-5-(1-methyl-1H-indazol-5-yl)phenyl]propionic acid] | ≥ 50%
O=Cc1c[nH]c2ccc(-c3cc(CCC(=O)O)ccc3OCC3CCCC3)cc12 [Compound 254, 3-[4-cyclopentylmethyloxy-3-(3-formyl-1H-indol-5-yl)phenyl]propionic acid] | ≥ 50%
CC(=O)Nc1ccc2cc(-c3cc(CCC(=O)O)ccc3OCC3CCCC3)ccc2c1 [Compound 077, 3-[3-(6-acetylaminonaphthalen-2-yl)-4-cyclopentylmethyloxy-phenyl]propionic acid] | ≥ 50%
O=C(O)CCc1ccc(OCC2CCCC2)c(-c2ccc3[nH]c(=S)sc3c2)c1 [Compound 309, 3-[4-cyclopentylmethyloxy-3-(2-thioxo-2,3-dihydrobenzothiazol-6-yl)phenyl]propionic acid] | ≥ 50%
CCCCOc1ccc(CCC(=O)O)cc1-c1ccc2ccccc2c1 [Compound 037, 3-[4-butyloxy-3-(naphthalen-2-yl)phenyl]propionic acid] | ≥ 50%
O=C(O)CCc1ccc(OCC2CCCC2)c(-c2ccc3ccc(O)cc3c2)c1 [Compound 008, 3-[4-cyclopentylmethyloxy-3-(7-hydroxynaphthalen-2-yl)-phenyl]propionic acid] | ≥ 50%
CN(C)S(=O)(=O)c1ccc2cc(-c3cc(CCC(=O)O)ccc3OCC3CCCC3)ccc2c1 [Compound 028, 3-{4-cyclopentylmethyloxy-3-[6-(N,N-dimethylsulfamoyl)naphthalen-2-yl]phenyl}propionic acid] | ≥ 50%
Cc1ccccc1COc1ccc(CCC(=O)O)cc1-c1ccc2[nH]ccc2c1 [Compound 134, 3-[3-(1H-indol-5-yl)-4-(2-methylphenylmethyloxy)phenyl]propionic acid] | ≥ 50%
Cc1oc2ccc(-c3cc(CCC(=O)O)ccc3OCC3CCCCC3)cc2c1C [Compound 279, 3-[4-cyclohexylmethyloxy-3-(2,3-dimethylbenzo[b]furan-5-yl)phenyl]propionic acid] | ≥ 50%
O=C(O)CCc1ccc(OC2CCCC2)c(-c2cccc3[nH]ccc23)c1 [Compound 118, 3-[4-cyclopentyloxy-3-(1H-indol-4-yl)phenyl]propionic acid] | ≥ 50%
CNS(=O)(=O)c1ccc2cc(-c3cc(CCC(=O)O)ccc3OCC3CCCC3)ccc2c1 [Compound 026, 3-{4-cyclopentylmethyloxy-3-[6-(N-methylsulfamoyl)naphthalen-2-yl]phenyl}propionic acid] | ≥ 50%
O=C(O)CCc1ccc(OCC2CCCC2)c(-c2ccc3c(ccn3C3CCCC3)c2)c1 [Compound 242, 3-[3-(1-cyclopentyl-1H-indol-5-yl)-4-cyclopentylmethyloxyphenyl]propionic acid] | ≥ 50%
COc1cc(CCC(=O)O)cc(-c2ccc3c(ccn3C)c2)c1OC1CCCC1 [Compound 580, 3-[4-cyclopentyloxy-3-methoxy-5-(1-methyl-1H-indol-5-yl)phenyl]propionic acid] | ≥ 50%

SMILES | inhibition at 0.4 µM
Cc1nc2ccc(-c3cc(CCC(=O)O)ccc3OCC3CCCC3)cc2s1 [Compound 308, 3-[4-cyclopentylmethyloxy-3-(2-methylbenzothiazol-6-yl)phenyl]propionic acid] | ≥ 50%
O=C(O)CCc1ccc(OCC2CCCCC2)c(-c2ccc3cc(OCC(=O)O)ccc3c2)c1 [Compound 072, 3-[3-(6-carboxymethyloxynaphthalen-2-yl)-4-cyclohexylmethyloxyphenyl]propionic acid] | ≥ 50%
CN=c1sc2cc(-c3cc(CCC(=O)O)ccc3OCC3CCCC3)ccc2n1C [Compound 305, 3-{4-cyclopentylmethyloxy-3-[3-methyl-2-(methylimino)-2,3-dihydrobenzothiazol-6-yl]phenyl}propionic acid] | ≥ 50%
Cc1[nH]c2ccc(-c3cc(CCC(=O)O)ccc3OCC3CCCCC3)cc2c1C [Compound 273, 3-[4-cyclohexylmethyloxy-3-(2,3-dimethyl-1H-indol-5-yl)phenyl]propionic acid] | ≥ 50%
O=C(O)CCc1ccc(OCc2cccc(F)c2)c(-c2ccc3[nH]ccc3c2)c1 [Compound 144, 3-[4-(3-fluorophenylmethyloxy)-3-(1H-indol-5-yl)phenyl]propionic acid] | ≥ 50%
Cc1cn(C)c2ccc(-c3cc(CCC(=O)O)ccc3OCC3CCCC3)cc12 [Compound 252, 3-[4-cyclopentylmethyloxy-3-(1,3-dimethyl-1H-indol-5-yl)phenyl]propionic acid] | ≥ 50%
O=C(O)CCc1ccc(OC2CCCCC2)c(-c2cccc3[nH]ccc23)c1 [Compound 120, 3-[4-cyclohexyloxy-3-(1H-indol-4-yl)phenyl]propionic acid] | ≥ 50%
CC(C)Oc1ccc(CCC(=O)O)cc1-c1ccc2ccccc2c1 [Compound 041, 3-[4-isopropyloxy-3-(naphthalen-2-yl)phenyl]propionic acid] | ≥ 50%
O=C(O)CCc1ccc(OCc2ccco2)c(-c2ccc3[nH]ccc3c2)c1 [Compound 194, 3-{4-[(furan-2-yl)methyloxy]-3-(1H-indol-5-yl)phenyl}propionic acid] | ≥ 50%
Cn1ccc2c(-c3cc(CCC(=O)O)ccc3OC3CCCC3)cccc21 [Compound 124, 3-[4-cyclopentyloxy-3-(1-methyl-1H-indol-4-yl)phenyl]propionic acid] | ≥ 50%
Cc1c[nH]c2ccc(-c3cc(CCC(=O)O)ccc3OCC3CCCC3)cc12 [Compound 112, 3-[4-cyclopentylmethyloxy-3-(3-methyl-1H-indol-5-yl)phenyl]propionic acid] | ≥ 50%
O=C(O)CCc1ccc(OC2CCCCCC2)c(-c2ccc3[nH]ccc3c2)c1 [Compound 184, 3-[4-cycloheptyloxy-3-(1H-indol-5-yl)phenyl]propionic acid] | ≥ 50%
CCn1ccc2cc(-c3cc(CCC(=O)O)cc(OC)c3OC3CCCC3)ccc21 [Compound 582, 3-[4-cyclopentyloxy-3-(1-ethyl-1H-indol-5-yl)-5-methoxyphenyl]propionic acid] | ≥ 50%
COc1nc2ccc(-c3cc(CCC(=O)O)ccc3OCC3CCCC3)cc2s1 [Compound 306, 3-[4-cyclopentylmethyloxy-3-(2-methoxybenzothiazol-6-yl)phenyl]propionic acid] | ≥ 50%
O=C(O)CCc1ccc(OCc2ccccc2)c(-c2ccc3ccccc3c2)c1 [Compound 323, 3-[4-benzyloxy-3-(naphthalen-2-yl)phenyl]propionic acid] | ≥ 50%
Cc1cccc(COc2ccc(CCC(=O)O)cc2-c2ccc3[nH]ccc3c2)c1 [Compound 136, 3-[3-(1H-indol-5-yl)-4-(3-methylphenylmethyloxy)phenyl]propionic acid] | ≥ 50%
O=C(O)CCc1ccc(OCC2CCCCC2)c(-c2cccc3ccccc23)c1 [Compound 070, 3-[4-cyclohexylmethyloxy-3-(naphthalen-1-yl)phenyl]propionic acid] | ≥ 50%
CC(C)n1ccc2cc(-c3cc(CCC(=O)O)ccc3OCC3CCCC3)ccc21 [Compound 238, 3-[4-cyclopentylmethyloxy-3-(1-isopropyl-1H-indol-5-yl)phenyl]propionic acid] | ≥ 50%
Cc1ccc(COc2ccc(CCC(=O)O)cc2-c2ccc3[nH]ccc3c2)cc1 [Compound 138, 3-[3-(1H-indol-5-yl)-4-(4-methylphenylmethyloxy)phenyl]propionic acid] | ≥ 50%
